Laboratory results published in patent US8530413B2, “Heterocyclically substituted methoxyphenyl derivatives with an oxo group, processes for preparation thereof and use thereof as medicaments” (Sanofi, priority 2010, dated 2013).

What follows are compounds tested against T1, GPCR GPR40 (Rattus norvegicus, UniProt Q8K3T4) (assay: In vitro FLIPR assay with recombinant cells which express the GPCR GPR40 (intracellular Ca2+)). Details: recombinant HEK293 cells expressing GPR40; Fluo-4 Ca2+ change; 100% = 10 μM linoleic acid.
T1 construct: expressed in transfected cells; host or cells: HEK293
T1 sequence (Q8K3T4 whole entry): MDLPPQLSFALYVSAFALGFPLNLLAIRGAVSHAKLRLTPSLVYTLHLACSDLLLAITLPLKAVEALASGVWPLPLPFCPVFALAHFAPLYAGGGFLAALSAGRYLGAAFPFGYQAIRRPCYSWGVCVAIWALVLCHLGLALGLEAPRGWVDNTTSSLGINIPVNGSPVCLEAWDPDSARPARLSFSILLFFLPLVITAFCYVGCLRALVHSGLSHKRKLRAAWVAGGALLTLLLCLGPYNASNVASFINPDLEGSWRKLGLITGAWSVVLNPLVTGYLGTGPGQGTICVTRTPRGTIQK
Assay type: cell-based
Experimental: In Vitro FLIPR Assay with Recombinant Cells which Express the GPCR GPR40
Function-testing assays were performed by means of the FLIPR technique (“Fluorescence Imaging Plate Reader”, Molecular Devices Corp.). For this purpose, agonist-induced changes were determined in the intracellular concentration of Ca^2+ in recombinant HEK293 cells which expressed the GPCR GPR40.
For the studies, cells were sown into 96-well microtiter plates (60 000 cells/well) and left to grow overnight. The medium was removed and the cells were incubated in buffer which contains the fluorescent dye Fluo-4. After this loading with dye, the cells were washed, test substance was added and changes were measured in the intracellular Ca^2+ concentration in the FLIPR instrument. Results were presented as the percentage change relative to the control (0%: no test substance added; 100%: 10 μM reference agonist linoleic acid added) and used to calculate dose/effect curves, and EC50 values were determined.

EC50 [µM]	SMILES
0.11	CC#CC(CC(=O)O)c1ccc(OCN2C(=O)C(C)(C)c3cc(Br)ccc32)cc1 (stereo not drawn) [Example 1, 3-[4-(5-Bromo-3,3-dimethyl-2-oxo-2,3-dihydroindol-1-ylmethoxy)phenyl]hex-4-ynoic acid]
4.61	CC#CC(CC(=O)O)c1ccc(OCN2C(=O)C(C)(C)c3ccc(Br)cc32)cc1 (stereo not drawn) [Example 2, 3-[4-(6-Bromo-3,3-dimethyl-2-oxo-2,3-dihydro-indol-1-ylmethoxy)phenyl]hex-4-ynoic acid]
0.13	CC#CC(CC(=O)O)c1ccc(OCN2C(=O)C(C)(C)c3cc(C(F)(F)F)ccc32)cc1 (stereo not drawn) [Example 3, 3-[4-(3,3-Dimethyl-2-oxo-5-trifluoromethyl-2,3-dihydroindol-1-ylmethoxy)phenyl]hex-4-ynoic acid]
0.28	CC#CC(CC(=O)O)c1ccc(OCN2C(=O)C(C)(C)Oc3cc(Br)ccc32)cc1 (stereo not drawn) [Example 4, 3-[4-(7-Bromo-2,2-dimethyl-3-oxo-2,3-dihydrobenzo[1,4]oxazin-4-ylmethoxy)phenyl]hex-4-ynoic acid]
0.18	CC#CC(CC(=O)O)c1ccc(OCN2C(=O)C(CC)(CC)c3cc(Br)ccc32)cc1 (stereo not drawn) [Example 5, 3-[4-(5-Bromo-3,3-diethyl-2-oxo-2,3-dihydroindol-1-ylmethoxy)phenyl]hex-4-ynoic acid]
0.44	CC#CC(CC(=O)O)c1ccc(OCN2C(=O)CC(C)(C)c3cc(Br)ccc32)cc1 (stereo not drawn) [Example 6, 3-[4-(6-Bromo-4,4-dimethyl-2-oxo-3,4-dihydro-2H-quinolin-1-ylmethoxy)phenyl]hex-4-ynoic acid]
0.05	CC#CC(CC(=O)O)c1ccc(OCn2c(=O)sc3ccccc32)cc1 (stereo not drawn) [Example 7, 3-[4-(2-Oxobenzothiazol-3-ylmethoxy)phenyl]hex-4-ynoic acid]
0.06	CC#CC(CC(=O)O)c1ccc(OCN2C(=O)C(C)(C)Oc3ccccc32)cc1 (stereo not drawn) [Example 8, 3-[4-(2,2-Dimethyl-3-oxo-2,3-dihydrobenzo[1,4]oxazin-4-ylmethoxy)phenyl]hex-4-ynoic acid]
0.35	CC#CC(CC(=O)O)c1ccc(OCN2C(=O)C(C)(C)Oc3cccnc32)cc1 (stereo not drawn) [Example 9]
